US20230337677A1, “ARYL AND PYRIDYL AMIDE PESTICIDES AND COMPOSITIONS THEREOF” (University of Florida Research Foundation, Incorporated, priority 2019, published 2023)
Where two headings read alike, the source gives them in different places.

Legend:
[1] = system: Aedes aegypti mosquitoes, insecticide-susceptible Orlando strain; assay type: in vivo; settings: for 1 h % Repellency, 100 μg/cm^2: screened at 100 μg/cm^2, strain not given; for 1 h Repellency EC50, μg/cm^2: (OR); for 1h % repellency: Screened at μg/cm^2
Method in brief: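 Sixteen female mosquitoes per glass tube facing netting-shielded filter paper treated with acetone solutions (30-0.01 μg/ml; screen at 100 μg/cm^2), no contact. Proportion on treated side scored up to 60 min, then flight-out checked 30 min; mortality after 24 hr constant exposure.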

[2] = system: Aedes aegypti strain Orlando (sensitive); assay: Topical toxicity (24 hour mortality), Ae. aegypti Orlando; assay type: in vivo
Method in brief: (§1)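 Females aged 3–6 days received 200 nL of compound in ethanol topically on the thorax, 10 per concentration per replicate, and were kept at 28° C with sugar water.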

[3] = system: Aedes aegypti strain Puerto Rico (PR, resistant to permethrin); assay: Topical toxicity (24 hour mortality), Ae. aegypti Puerto Rico; assay type: in vivo
Method: The Aedes aegypti strains Orlando (sensitive) as well as the Puerto Rico (PR, resistant to permethrin) were used. The Anopheles gambiae (G3 sensitive strain, as well as Akron kdr (Akdr) strain, resistant to pyrethroids were also assessed. The larvae were provided by the USDA, Gainesville Fl, and raised in a pan with tap water maintained at 28° C. Larvae were fed a ground liver and yeast mixture, and pupae were placed in emergence cages. Adults were held at 28° C. and provided with cotton balls soaked in 10% sugar water for rearing and for all bioassays.
Female adults from 3 to 6 days were used for the experiments. The drug was dissolved in ethanol and then applied with a micro-applicator on the thorax, between the legs: 200 nL of drug per female mosquito, with different concentrations of the drug; 10 mosquitos were treated together per concentration per replicate, and put together in a small container with free access to sweet water. Mortality, i.e. no visible movement, was assessed 24 hours after treatment. Every compound was assessed on at least 3 different cohorts of mosquitoes, and the LD50 values and slopes were determined with Probit analysis, corrected with Abbott's formula.

[4] = system: Anopheles gambiae G3 sensitive strain; assay: Topical toxicity (24 hour mortality), An. gambiae G3; assay type: in vivo
Method in brief: as §1

[5] = system: Anopheles gambiae Akron kdr (Akdr) strain, resistant to pyrethroids; assay: Topical toxicity (24 hour mortality), An. gambiae Akdr; assay type: in vivo
Method in brief: as §1

[6] = system: Aedes aegypti mosquitoes, insecticide-susceptible Orlando strain; settings: for 24h % mortality: Screened at μg/cm^2
[7] = system: Aedes aegypti mosquitoes, insecticide-susceptible Orlando strain; assay: whole plant or invertebrate; settings: 24 h, read-out: 24 h % Mortality, 100 μg/cm^2
[8] = system: Aedes aegypti mosquitoes, pyrethroid-resistant Puerto Rico strain; assay: Vapor toxicity (24 h lethality under constant exposure in glass tubes), resistant strain; settings: LC50, with resistance ratio (PR)
[9] = system: Aedes aegypti mosquitoes, pyrethroid-resistant Puerto Rico strain; assay: Vapor repellency glass tube assay (1 h), resistant strain; assay type: in vivo; settings: with resistance ratio (PR)
[10] = Table 3B; Hammett substitution constant based on the ionization of benzoic acids; cited from earlier work
[11] = Mammalian toxicity, oral gavage; assay type: in vivo; settings: ICR, in vivo; Table 3A; oral gavage; preliminary mouse screening
Method: (§2) Mice ([…] strain ICR, body weight between 20 and 26 g, 35 days old+/−4 days), were force fed with compounds solubilized in olive oil to a volume of 10 μL per gram of mouse via 1 mL disposable syringes attached to 22 gauge metal canulas directly in the stomach following the Institutional Animal Care and Use Committee (IACUC) standard procedure. One hour after gavage, mice were returned to food and water access ad libitum. Dose tested ranged from 60 up to 600 mg/kg of mice, following the method recommended by the US EPA to reduce the number of mice used to determine the LD50 doses. Mice were monitored after drug administration during the first hour, and then every 4 hours up to 24 hours. The surviving mice were humanely sacrificed. Any mice displaying a high state of pain/distress would also be considered as not surviving the treatment and were sacrificed before the end of the investigation. The […] was determined using the AOT425StatPgm software; the study was registered and approved by IACUC under number 201810416.

Mice (inbred strain ICR) = assay: Mammalian toxicity, oral gavage; assay type: in vivo; settings: Table 5; preliminary mouse screening
Method: as §2

O=C(Nc1cc(Cl)nc(Cl)c1)C(F)(F)C(F)(F)C(F)(F)F [GMR031]
1 h % Repellency, 100 μg/cm^2 [1]: 34% | Ae. aegypti OR LD50 ([2]; topical application, 24 h mortality, female adults, susceptible Orlando strain): 34 ng/mg | Ae. aegypti RR (resistance ratio) ([3]; 24 h LD50 resistant strain (PR)/24 h LD50 susceptible strain (OR)): 0.9 | Ae. aegypti PR LD50 ([3]; topical application, 24 h mortality, female adults, permethrin-resistant Puerto Rico strain): 31 ng/mg | An. gambiae G3 LD50 ([4]; topical application, 24 h mortality, female adults, susceptible strain G3): 8.0 ng/mg | An. gambiae RR (resistance ratio) ([5]; 24 h LD50 resistant strain (AKDR)/24 h LD50 susceptible strain (G3)): 0.8 | An. gambiae AKDR LD50 ([5]; topical application, 24 h mortality, female adults, pyrethroid-resistant Akdr strain): 6.7 ng/mg | 24 h LC50, μg/cm^2 ([6]; 24 h, LC50 (OR)): 25 μg/cm^2 | mortality at 100 µg/cm2 [7]: 98% | 24 h LC50, μg/cm^2 (RR) [8]: 22 μg/cm^2

CC(=O)Nc1ccccc1C(F)(F)F [MTFI-1-4A]
1 h Repellency EC50, μg/cm^2 [1]: 26 μg/cm^2 | 1 h % Repellency, 100 μg/cm^2 [1]: 78% | 1 h Repellency EC50, μg/cm^2 (RR) [9]: 81 μg/cm^2

O=C(Nc1cc(C(F)(F)F)cc(C(F)(F)F)c1)C(F)F [MTFI-4-2B]
1 h Repellency EC50, μg/cm^2 [1]: 15 μg/cm^2 | 1 h % Repellency, 100 μg/cm^2 [1]: 100% | 1 h Repellency EC50, μg/cm^2 (RR) [9]: 24 μg/cm^2 | mortality at 100 µg/cm2 [7]: 88%

O=C(Nc1cc(F)c(F)c(F)c1)C(F)(F)C(F)(F)C(F)(F)F [MTFI-5-3A, 2,2,3,3,4,4,4-heptafluoro-N-(3,4,5-trifluorophenyl)butanamide]
1 h Repellency EC50, μg/cm^2 [1]: 2.9 μg/cm^2 | repellency EC50, compound alone ([1]; alone, FIG. 3 / FIG. 4): 2.9 μg/cm^2 | 1 h % Repellency, 100 μg/cm^2 [1]: 68% | 1 h Repellency EC50, μg/cm^2 (RR) [9]: 4.5 μg/cm^2 | 24 h LC50, μg/cm^2 ([6]; 24 h, LC50 (OR)): 13 μg/cm^2 | mortality at 100 µg/cm2 [7]: 100% | 24 h LC50, μg/cm^2 (RR) [8]: 11 μg/cm^2

C/C=C/C1C(C(=O)OCc2c(F)c(F)c(COC)c(F)c2F)C1(C)C (stereo not drawn) [Metofluthrin, metofluthrin, reference compound]
1 h Repellency EC50, μg/cm^2 [1]: 0.3 μg/cm^2 | 1 h Repellency EC50, μg/cm^2 (RR) [9]: 12 μg/cm^2 | 24 h LC50, μg/cm^2 ([6]; 24 h, LC50 (OR)): 0.84 μg/cm^2 | 24 h LC50, μg/cm^2 (RR) [8]: 43 μg/cm^2

CC1(C)[C@H](C=C(Cl)Cl)[C@H]1C(=O)OCc1c(F)c(F)cc(F)c1F [Transfluthrin, transfluthrin, reference compound]
1 h Repellency EC50, μg/cm^2 [1]: 0.5 μg/cm^2 | 1 h Repellency EC50, μg/cm^2 (RR) [9]: 2.3 μg/cm^2 | 24 h LC50, μg/cm^2 ([6]; 24 h, LC50 (OR)): 0.16 μg/cm^2 | 24 h LC50, μg/cm^2 (RR) [8]: 7.6 μg/cm^2

O=C(CCl)Nc1cccc(O)c1 [compound 2]
1h % repellency ([1]; Table 3B): 36% | σmeta [10]: 0.12

O=C(CCl)Nc1cccc(F)c1 [compound 3]
1h % repellency ([1]; Table 3B): 6% | σmeta [10]: 0.337

O=C(CCl)Nc1cccc(C(F)(F)F)c1 [compound 4]
1h % repellency ([1]; Table 3B): 50% | 24h % mortality ([6]; Table 3B): 3.13% | σmeta [10]: 0.52

O=C(Nc1c(Cl)cc(C(F)(F)F)cc1Cl)C(F)(F)C(F)(F)F [compound 41]
1h EC50 (μg/cm^2) ([1]; Table 3A): 5.30 μg/cm^2 | 1h % repellency ([1]; Table 3A): 66% | LD50 at 24 h [11]: 200 mg/kg | 24 h LC50, μg/cm^2 ([6]; Table 3A): 0.27 μg/cm^2 | 24h % mortality ([6]; Table 3A): 100%

O=C(Nc1cc(F)c(F)c(F)c1)C(F)(F)C(F)(F)C(F)(F)F [compound 52]
1h EC50 (μg/cm^2) ([1]; Table 3A): 2.92 μg/cm^2 | 1h % repellency ([1]; Table 3A): 68% | LD50 at 24 h [11]: > 2000 mg/kg | 24 h LC50, μg/cm^2 ([6]; Table 3A): 13.30 μg/cm^2 | 24h % mortality ([6]; Table 3A): 100%

O=C(Nc1c(Cl)cccc1Cl)C(F)(F)C(F)(F)F [compound 53]
1h EC50 (μg/cm^2) ([1]; Table 3A): 8.90 μg/cm^2 | LD50 at 24 h [11]: > 2000 mg/kg | 24 h LC50, μg/cm^2 ([6]; Table 3A): 7.60 μg/cm^2 | 24h % mortality ([6]; Table 3A): 100%

O=C(Nc1cc(Cl)nc(Cl)c1)C(F)(F)C(F)(F)OC(F)(F)F [compound 54]
Mouse LD50 (Mice (inbred strain ICR)): >2000 ng/mg | Ae. aegypti OR LD50 ([2]; Table 5, topical, 24 h): 17.80 ng/mg | An. gambiae G3 LD50 ([4]; Table 5, topical, 24 h): 6.04 ng/mg | An. gambiae AKDR LD50 ([5]; Table 5, topical, 24 h): 11.00 ng/mg

O=C(Nc1cc(Cl)nc(Cl)c1)C(F)(C(F)(F)F)C(F)(F)F [compound 55]
Mouse LD50 (Mice (inbred strain ICR)): ~50 ng/mg | Ae. aegypti OR LD50 ([2]; Table 5, topical, 24 h): 17.20 ng/mg | Ae. aegypti LD50 ([3]; Table 5, topical, 24 h, strain not given, line below OR): 7.10 ng/mg | An. gambiae G3 LD50 ([4]; Table 5, topical, 24 h): 5.80 ng/mg | An. gambiae AKDR LD50 ([5]; Table 5, topical, 24 h): 2.70 ng/mg

O=C(Nc1cc(Cl)nc(C(F)(F)F)c1)C(F)(F)C(F)(F)OC(F)(F)F [compound 57]
Mouse LD50 (Mice (inbred strain ICR)): >200 ng/mg | Ae. aegypti OR LD50 ([2]; Table 5, topical, 24 h): 14.90 ng/mg | An. gambiae G3 LD50 ([4]; Table 5, topical, 24 h): 13.70 ng/mg | An. gambiae AKDR LD50 ([5]; Table 5, topical, 24 h): 3.60 ng/mg
